Like-named read-outs stand apart in the source and are kept apart here.

Data on four compounds can be found in publication PMC8080595, “Discovery of a novel RORγ antagonist with skin-restricted exposure for topical treatment of mild to moderate psoriasis” (Scientific Reports, 2021).

In series [1] the test system is psoriasis. Set-up: method as in PMID 27852111. Particulars: oral, phase 2a, cited from earlier work.
Series [2] has as its system psoriasis. Also noted: method as in PMID 29150844. The settings on record: ointment 0.03%, 0.1%, 0.8% and 4%, all doses; cited from earlier work.
For series [3], the system named is IMQ-induced mouse psoriasis-like inflammation model. Also noted: method as in PMID 26870941. The settings on record: 1% GSK2981278 ointment vs placebo + IMQ control; cited from earlier work.
A further series in a line: Oral PK in SD rats. The format is in vivo. The settings on record: male, rat, plasma; for AUC: read-out: Exposure in SD Rat, AUC; for Cmax: read-out: Exposure in SD Rat, Cmax; for half-life: read-out: Exposure in SD Rat, t1/2 (converted). The procedure: Compounds were dissolved in 5% DMSO, 5% tween 80 and then added 90% saline. Male SD rats were dosed with the compound via oral (2 mg/kg or 5 mg/kg) routes, respectively after fasting overnight. Blood of the animals were collected at indicated time post dosing. Blood samples were then prepared for plasma and analyzed for the compounds using validated LC/MS assays. The experimental protocol used in this study was approved by IACUC. The experiments were conducted in accordance with the Guiding Principles for the Care and Use of Laboratory Animals and complied with the ARRIVE guidelines.

Series [4] in a line: Liver microsomal stability, mouse. The format is in vitro ADME. Particulars: liver microsomes, pH 7.4, read-out: Liver microsomal stability, t1/2, Mouse. On the procedure:
(§1) The compound was mixed with 0.5 mg/ml human liver microsome (Thermal Fisher) at a final concentration of 1 µM in 100 mM potassium phosphate buffer, pH 7.4. The reactions were initiated by the addition of 1 mM NADPH. Samples in duplicate were incubated at 37 °C with mixing. 100 µL aliquots were transferred after 0, 5, 10, 30, 45, 60 minutes to a new tube with 300 µL acetonitrile, incubated on ice for 30 minutes, centrifuged at 1800×g at 4 °C for 10 minutes. The supernatants were transferred to glass vials subjected to LC/MS analysis. Peak areas were measured to calculate half-life according to the formula t1/2 = − 0.693/slope of linear regression analysis of ln [concentration] versus incubation time. Similar methods were applied to access mouse and rat liver microsomal stability of the compounds.
For orientation: Microsomes from liver hold many membrane-bound enzymes, among them those of drug oxidation.

Series [5] is described as follows: Liver microsomal stability, human. The format is in vitro ADME. Particulars: pH 7.4. The procedure:
as §1

Another series has as its target T1, RORγ LBD (Homo sapiens, UniProt P51449).
T1 construct: The assay was performed with GST-tag RORγ LBD (25 ng/reaction, Creative Biomart); purchased Creative Biomart
T1 sequence (P51449 269-508 limits assumed): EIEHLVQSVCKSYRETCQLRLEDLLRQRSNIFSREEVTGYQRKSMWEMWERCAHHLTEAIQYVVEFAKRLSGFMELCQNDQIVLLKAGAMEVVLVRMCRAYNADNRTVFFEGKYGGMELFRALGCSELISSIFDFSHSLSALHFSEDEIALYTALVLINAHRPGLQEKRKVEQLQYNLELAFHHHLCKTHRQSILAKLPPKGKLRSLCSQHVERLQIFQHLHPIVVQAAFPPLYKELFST
Put plainly: LanthaScreen TR-FRET human RORγ coactivator assay. The settings on record: antagonist mode, read-out: Binding of RORγ LBD, IC50. The format is biochemical. The text has this:
In LanthaScreen TR-FRET RORγ coactivator assay, the RORγ LBD was constitutively active and the coactivator peptide (fluorescein-D22) was recruited in the absence of ligand, or compound (Fig. 2a). The binding of an antagonist to RORγ LBD causes a conformational change of the receptor, leading to a decrease in the affinity of the receptor for the coactivator peptide. The separation of the fluorescently labeled coactivator peptide from RORγ LBD from the receptor with the terbium-labeled antibody causes a decrease in the TR-FRET signal compared to those without compound. The assay was validated by detecting the ligand-independent recruitment of coactivator peptide in the presence or absence of RORγ LBD (2.5- to 3-fold assay window). Effects of the key compounds of the novel chemotype in Fig. 1, were tested in LanthaScreen TR-FRET RORγ coactivator assay.
The assay was performed with GST-tag RORγ LBD (25 ng/reaction, Creative Biomart), 0.6 μM Fluorescein-D22 coactivator peptide and 8 nM Tb anti-GST antibody (Invitrogen) at room temperature for 60 minutes. The fluorescent signals were measured with 520 nm emission and 495 nm excitation on Tecan Infinite. The data were calculated using DMSO control as 0% inhibition and non-protein control as 100% inhibition. IC50 values were calculated using non-linear regression analysis of GraphPad Prism in all assays.
For orientation: TR-FRET usually uses a lanthanide donor and a delayed reading to cut background.

A short description of series [6]: Liver microsomal stability, rat. The format is in vitro ADME. The settings on record: liver microsomes, pH 7.4, read-out: Liver microsomal stability, t1/2, Rat. The procedure: as §1
Series [7] concerns IL-17 secretion from human PBMCs. Put plainly: Human IL-17 production assay using human PBMC. The format is cell-based. The settings on record: cytostim stimulation 72 h. On the procedure:
To confirm cellular on-target effects, we investigated the inhibition of selected RORγ antagonists on RORγ-regulated IL-17 secretion using human PBMC. Human IL-17-producing cells were readily formed following cytostim stimulation. In human PBMC stimulated with cytostim for 72 h, differentiation of Th17 cells was confirmed by increased secretion of IL-17 (291 pg/mL) in cell culture supernatant compared to basal level of IL-17 (20 pg/mL IL-17 without cytostim stimulation), […] of IL-17 secretion.
Human PBMCs (Zenbio) in TexMACS media were stimulated by cytostim (Miltenyi) for 72 h following the vendor's instruction. Human IL-17A in cell culture supernatant was measured using AlphaLISA human IL-17A Biotin-free detection kit (Perkin Elmer) according to the manufacturer’s protocol.

[8] abbreviates: human, liver microsomes, 1 µM compound, 0.5 mg/ml microsome, NADPH, 37 °C, read-out: Liver microsomal stability, t1/2, Human.

Take `CCS(=O)(=O)c1ccc(CNC(=O)c2cnc3c(c2)CN(C[C@H]2CC[C@H](C(F)(F)F)CC2)[C@H]3C(C)C)nc1` [VTP43742]: the “efficacy in psoriatic patients” value in the series with psoriasis [1] (four-week period) was “clear signal of efficacy”. The transaminase result in the series on psoriasis [1] was “elevations of reversible transaminase”.

`CCc1ccc(N(CC(C)C)S(=O)(=O)c2ccc(OCC3CCOCC3)c(CO)c2)cc1` [GSK2981278]: the Infiltrate thickness entry in the series with psoriasis [2] is “not changed”. Moreover, the “reduction of epithermal thickness” value in series [3] is recorded as 23%.

As a reminder, the AUC is concentration integrated over time. For orientation: Cmax means the highest concentration seen after dosing. What is called IC50 is the concentration needed to halve the response being measured. A word on the EC50: it is the concentration at which the effect is half-maximal. Lower therefore signals higher potency in that assay. On to `CCS(=O)(=O)c1ccc(Cc2nc3c(Cl)c(N4CCC(F)(F)CC4)c(Cl)cc3[nH]2)cc1` [Compound 2, 4,6-dichloro-5-(4,4-difluoropiperidin-1-yl)-2-(4-(ethylsulfonyl)benzyl)-1H-benzo[d]imidazole], for which, in the series “Oral PK in SD rats” (2 mg/kg oral), the AUC was found to be 352 ng·h/mL. Also, the peak concentration (Cmax) in “Oral PK in SD rats” (2 mg/kg oral) turned out to be 70 ng/mL. Also, the half-life in the series “Oral PK in SD rats” (2 mg/kg oral) is 120 min. Besides, the half-life at 1 µM is 7.8 min in [4]; 18.5 min in series [5] (setting [8]); 7.8 to 34.5 min in series [5] (range across human, rat and mouse liver microsomes, read-out: t1/2 in human, rat and mouse liver microsome stability assays); 34.5 min in series [6]. At RORγ LBD, the IC50 was 40 ± 27 nM. For the same compound, in [7], the EC50 was determined as 46 ± 2 nM.

In the case of `CCS(=O)(=O)c1ccc(Cc2nc3c(Cl)c(-c4ccccc4OC(F)(F)F)c(Cl)cc3[nH]2)c(Cl)c1` [Compound 1, 4,6-dichloro-2-(2-chloro-4-(ethylsulfonyl)benzyl)-5-(2-(trifluoromethoxy)phenyl)-1H-benzo[d]imidazole], in “Oral PK in SD rats” (5 mg/kg oral), the AUC amounted to 6980 ng·h/mL, the highest concentration (Cmax) turned out to be 446 ng/mL and the half-life was 768 min. Besides, in series [5] (setting [8]), the half-life at 1 µM was more than 120 min. For the same compound, the IC50 on RORγ LBD was 62 ± 18 nM. The half-life at 1 µM in series [6] is more than 120 min. Further, the EC50 in series [7] came out at 30 ± 10 nM.
